# Measurements taken from PubChem BioAssay AID1963434 (Molecular Pharmacology Branch, DTP, NCI, 2024).
# Test system: 755483-174-R-J1-PDC complex spheroid growth, percent test/control
# Assay: Anticancer human tumor 755483-174-R-J1-PDC patient-derived rhabdomyosarcoma cell line growth inhibition [Asc]
# Conditions: for IC50: curve of first compound; for viability, T/C: stronger effect = lower value
# How it was run: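 Spheroid model: tumor line + HUVEC + hMSC. Single agents and combinations; top conc. at/near clinical Cmax (10 microM if undetermined), half-log dilutions. DMSO stocks at 800-fold test concentration.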
# [1] = second compound 0.1 µM, first compound 0.0316 µM
# [2] = second compound 0.1 µM, first compound 0.1 µM
# [3] = second compound 0.1 µM, first compound 0.316 µM
# [4] = second compound 0.1 µM, first compound 1 µM
# [5] = second compound 0.1 µM, first compound 3.16 µM
# [6] = second compound 0.1 µM, first compound 10 µM
# [7] = second compound 0.316 µM, first compound 0.0316 µM
# [8] = second compound 0.316 µM, first compound 0.1 µM
# [9] = second compound 0.316 µM, first compound 0.316 µM
# [10] = second compound 0.316 µM, first compound 1 µM
# [11] = second compound 0.316 µM, first compound 3.16 µM
# [12] = second compound 0.316 µM, first compound 10 µM
# [13] = second compound 1 µM, first compound 0.0316 µM
# [14] = second compound 1 µM, first compound 0.1 µM
# [15] = second compound 1 µM, first compound 0.316 µM
# [16] = second compound 1 µM, first compound 1 µM
# [17] = second compound 1 µM, first compound 3.16 µM
# [18] = second compound 1 µM, first compound 10 µM
# [19] = second compound 3.16 µM, first compound 0.0316 µM
# [20] = second compound 3.16 µM, first compound 0.1 µM
# [21] = second compound 3.16 µM, first compound 0.316 µM
# [22] = second compound 3.16 µM, first compound 1 µM
# [23] = second compound 3.16 µM, first compound 3.16 µM
# [24] = second compound 3.16 µM, first compound 10 µM
# [25] = second compound 10 µM, first compound 0.0316 µM
# [26] = second compound 10 µM, first compound 0.1 µM
# [27] = second compound 10 µM, first compound 0.316 µM
# [28] = second compound 10 µM, first compound 1 µM
# [29] = second compound 10 µM, first compound 3.16 µM
# [30] = second compound 10 µM, first compound 10 µM
# 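Also: spheroids exposed to compounds for seven days before readout.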
smiles,measurement,setting,value
C=C(F)C(=O)N1CCN(c2nc(OCC3CCCN3C)nc3c2CCN(c2cccc4cccc(Cl)c24)C3)CC1CC#N (stereo not given) + Cc1c(S(C)(=O)=O)c(-c2cc(F)cc(N3CCN(c4ccc(NS(=O)(=O)c5ccc(NC(CCN6CCC(C(=O)OCCCP(=O)(O)O)CC6)CSc6ccccc6)c(S(=O)(=O)C(F)(F)F)c5)cc4)CC3)c2)c(-c2ccc(Cl)cc2)n1C(C)C,IC50,second compound 0.1 µM,235 nM
same,IC50,second compound 0.316 µM,< 31.6 nM
same,IC50,second compound 1 µM,< 31.6 nM
same,IC50,second compound 3.16 µM,< 31.6 nM
same,IC50,second compound 10 µM,< 31.6 nM
same,"viability, T/C",[1],46.4%
same,"viability, T/C",[2],58.9%
same,"viability, T/C",[3],49.7%
same,"viability, T/C",[4],30.2%
same,"viability, T/C",[5],8.51%
same,"viability, T/C",[6],0.1%
same,"viability, T/C",[7],39.3%
same,"viability, T/C",[8],48.7%
same,"viability, T/C",[9],39.4%
same,"viability, T/C",[10],33.4%
same,"viability, T/C",[11],10.8%
same,"viability, T/C",[12],0.52%
same,"viability, T/C",[13],40.9%
same,"viability, T/C",[14],37.9%
same,"viability, T/C",[15],32%
same,"viability, T/C",[16],20.3%
same,"viability, T/C",[17],5.1%
same,"viability, T/C",[18],1.75%
same,"viability, T/C",[19],35%
same,"viability, T/C",[20],27%
same,"viability, T/C",[21],30.6%
same,"viability, T/C",[22],16.5%
same,"viability, T/C",[23],8.95%
same,"viability, T/C",[24],0.11%
same,"viability, T/C",[25],42.9%
same,"viability, T/C",[26],41.7%
same,"viability, T/C",[27],34%
same,"viability, T/C",[28],20.6%
same,"viability, T/C",[29],11.8%
same,"viability, T/C",[30],0.16%
C=CC(=O)N1CCN(c2nc(=O)n(-c3c(C)ccnc3C(C)C)c3nc(-c4c(O)cccc4F)c(F)cc23)C(C)C1 (stereo not given) + Cc1c(S(C)(=O)=O)c(-c2cc(F)cc(N3CCN(c4ccc(NS(=O)(=O)c5ccc(NC(CCN6CCC(C(=O)OCCCP(=O)(O)O)CC6)CSc6ccccc6)c(S(=O)(=O)C(F)(F)F)c5)cc4)CC3)c2)c(-c2ccc(Cl)cc2)n1C(C)C,IC50,second compound 0.1 µM,> 10000 nM
same,IC50,second compound 0.316 µM,5510 nM
same,IC50,second compound 1 µM,< 31.6 nM
same,IC50,second compound 3.16 µM,> 10000 nM
same,IC50,second compound 10 µM,< 31.6 nM
same,"viability, T/C",[1],79.5%
same,"viability, T/C",[2],46.7%
same,"viability, T/C",[3],58.4%
same,"viability, T/C",[4],72.9%
same,"viability, T/C",[5],62.3%
same,"viability, T/C",[6],56.2%
same,"viability, T/C",[7],45.4%
same,"viability, T/C",[8],64.7%
same,"viability, T/C",[9],44.5%
same,"viability, T/C",[10],57.1%
same,"viability, T/C",[11],53.2%
same,"viability, T/C",[12],46.9%
same,"viability, T/C",[13],47.2%
same,"viability, T/C",[14],47.4%
same,"viability, T/C",[15],54.8%
same,"viability, T/C",[16],49%
same,"viability, T/C",[17],49.3%
same,"viability, T/C",[18],37.7%
same,"viability, T/C",[19],52.4%
same,"viability, T/C",[20],46%
same,"viability, T/C",[21],51.9%
same,"viability, T/C",[22],63.2%
same,"viability, T/C",[23],48.3%
same,"viability, T/C",[24],48.8%
same,"viability, T/C",[25],35%
same,"viability, T/C",[26],34.6%
same,"viability, T/C",[27],50.2%
same,"viability, T/C",[28],42.6%
same,"viability, T/C",[29],32.8%
same,"viability, T/C",[30],42.7%
CCN1C(C(=O)NC23CCC(C(=O)O)(CC2)CC3)C(c2cccc(Cl)c2F)C2(C(=O)Nc3cc(Cl)ccc32)C12CCCCC2 (stereo not given) + Cc1c(S(C)(=O)=O)c(-c2cc(F)cc(N3CCN(c4ccc(NS(=O)(=O)c5ccc(NC(CCN6CCC(C(=O)OCCCP(=O)(O)O)CC6)CSc6ccccc6)c(S(=O)(=O)C(F)(F)F)c5)cc4)CC3)c2)c(-c2ccc(Cl)cc2)n1C(C)C,IC50,second compound 0.1 µM,1740 nM
same,IC50,second compound 0.316 µM,< 9.49 nM
same,IC50,second compound 1 µM,< 9.49 nM
same,IC50,second compound 3.16 µM,< 9.49 nM
same,IC50,second compound 10 µM,26.8 nM
same,"viability, T/C","second compound 0.1 µM, first compound 0.00949 µM",68.7%
same,"viability, T/C","second compound 0.1 µM, first compound 0.03 µM",60.5%
same,"viability, T/C","second compound 0.1 µM, first compound 0.0949 µM",57.5%
same,"viability, T/C","second compound 0.1 µM, first compound 0.3 µM",61.4%
same,"viability, T/C","second compound 0.1 µM, first compound 0.949 µM",65.5%
same,"viability, T/C","second compound 0.1 µM, first compound 3 µM",38.7%
same,"viability, T/C","second compound 0.316 µM, first compound 0.00949 µM",49%
same,"viability, T/C","second compound 0.316 µM, first compound 0.03 µM",33.9%
same,"viability, T/C","second compound 0.316 µM, first compound 0.0949 µM",55.8%
same,"viability, T/C","second compound 0.316 µM, first compound 0.3 µM",30.4%
same,"viability, T/C","second compound 0.316 µM, first compound 0.949 µM",59.7%
same,"viability, T/C","second compound 0.316 µM, first compound 3 µM",36.1%
same,"viability, T/C","second compound 1 µM, first compound 0.00949 µM",48.3%
same,"viability, T/C","second compound 1 µM, first compound 0.03 µM",47%
same,"viability, T/C","second compound 1 µM, first compound 0.0949 µM",38.7%
same,"viability, T/C","second compound 1 µM, first compound 0.3 µM",45.5%
same,"viability, T/C","second compound 1 µM, first compound 0.949 µM",29.2%
same,"viability, T/C","second compound 1 µM, first compound 3 µM",40%
same,"viability, T/C","second compound 3.16 µM, first compound 0.00949 µM",36.8%
same,"viability, T/C","second compound 3.16 µM, first compound 0.03 µM",34.1%
same,"viability, T/C","second compound 3.16 µM, first compound 0.0949 µM",34.4%
same,"viability, T/C","second compound 3.16 µM, first compound 0.3 µM",46.9%
same,"viability, T/C","second compound 3.16 µM, first compound 0.949 µM",37.9%
same,"viability, T/C","second compound 3.16 µM, first compound 3 µM",27.5%
same,"viability, T/C","second compound 10 µM, first compound 0.00949 µM",40.6%
same,"viability, T/C","second compound 10 µM, first compound 0.03 µM",64.6%
same,"viability, T/C","second compound 10 µM, first compound 0.0949 µM",52.8%
same,"viability, T/C","second compound 10 µM, first compound 0.3 µM",38.5%
same,"viability, T/C","second compound 10 µM, first compound 0.949 µM",40.5%
same,"viability, T/C","second compound 10 µM, first compound 3 µM",45.9%
